Test [1] deals with Plasmodium falciparum. The test can be described thus: microbe, parasite or virus in culture.
Description: In vitro antiparasitic activity against chloroquine-resistant Plasmodium falciparum Indochina I
The next test relates to Nucleic Acid. The experiment in a line: Binding affinity for poly dA-dT DNA by measuring the change in midpoint of the thermal denaturation curves. In kind it is nucleic-acid assay.
For test [2], the system named is Plasmodium falciparum. The experiment in a line: microbe, parasite or virus in culture. This is another data set of the same source.
Description: In vitro antiparasitic activity against chloroquine-sensitive Plasmodium falciparum Haiti 135
In another test the test system is Calf thymus DNA. The test can be described thus: Binding affinity for calf thymus DNA by measuring the change in midpoint of the thermal denaturation curves. In kind it is nucleic-acid assay. Particulars: Bos taurus.
A further test concerns A549. The test can be described thus: Cytotoxicity against human lung cell carcinoma A549 cell line. Type of test: functional, cell-based.

Where only a bound is given, the exact number is not on record here.

The record followed here is ChEMBL document CHEMBL1148453, “Parallel solution-phase synthesis of conformationally restricted congeners of pentamidine and evaluation of their antiplasmodial activities” (J Med Chem, 2004).

As for `CN1CCN(C)C1c1ccc(N2CCN(c3ccc(C4N(C)CCN4C)cc3)CC2)cc1`, the IC50 in the test on Plasmodium falciparum [1] and in the test on Plasmodium falciparum [2] was > 500 nM each time. For the same compound, the shift in melting temperature (ΔTm) (usually the change in melting temperature against a reference sample) with Nucleic Acid was determined as 1.8 °C; in the test with Calf thymus DNA, 2.4 °C.
Take `NNC(=O)c1ccc(N2CCN(c3ccc(C(=O)NN)cc3)CC2)cc1`: the IC50 with Plasmodium falciparum [1] and in the test on Plasmodium falciparum [2] was > 500 nM throughout. For the same compound, the ΔTm with Nucleic Acid was determined as 0 °C; in the test with Calf thymus DNA, 0.1 °C.
For `N=C(N)c1ccc(OCCCCCOc2ccc(C(=N)N)cc2)cc1` [PENTAMIDINE], the IC50 (in general, the concentration that inhibits the measured activity by half) in the test with Plasmodium falciparum [1] turned out to be 45 nM; in the test with A549, 40000 nM; in the test on Plasmodium falciparum [2], 15 nM. Also, the values for the thermal shift (ΔTm) with Nucleic Acid and in the test on Calf thymus DNA were 20.6 °C and 11.1 °C, respectively.
As for `c1ccc(N2CCN(c3ccccc3)C2c2ccc(N3CCN(c4ccc(C5N(c6ccccc6)CCN5c5ccccc5)cc4)CC3)cc2)cc1`, the IC50 with Plasmodium falciparum [1] and in the test on Plasmodium falciparum [2] was > 500 nM each time. Further, the figures for the ΔTm in the test on Nucleic Acid and in the test with Calf thymus DNA were 0 °C and -1.2 °C, respectively.
Regarding `c1cc(N2CCN(c3ccc(C4OCCO4)cc3)CC2)ccc1C1OCCO1`, the IC50 with Plasmodium falciparum [1] and in the test with Plasmodium falciparum [2] was > 500 nM in each case. For the same compound, the ΔTm with Nucleic Acid was 0.1 °C; in the test with Calf thymus DNA it was -1.2 °C.
With `CCN(CC)CCCC(C)Nc1ccnc2cc(Cl)ccc12` (stereo unspecified) [CHLOROQUINE], half-maximal inhibition in the test with A549 (IC50) was put at 40000 nM.
Regarding `N=C(N)c1ccc(N2CCCN(c3ccc(C(=N)N)cc3)CC2)cc1`, the IC50 in the test with Plasmodium falciparum [1] was 100 nM; in the test on A549, > 204000 nM; in the test with Plasmodium falciparum [2], 150 nM. Further, the shift in melting temperature (ΔTm) is 23.1 °C with Nucleic Acid and 15 °C in the test on Calf thymus DNA.
As to `CCOC(=O)c1ccc(N2CCN(c3ccc(C(=O)OCC)cc3)CC2)cc1`, the half-maximal inhibitory concentration (IC50) with Plasmodium falciparum [1] and in the test with Plasmodium falciparum [2] was > 500 nM each time. Moreover, the ΔTm stood at 0 °C in the test on Nucleic Acid and 0.6 °C in the test on Calf thymus DNA.
